SMILES strings stand for the structures. Where only a bound is given, the exact number is not on record here.

Assay [1] addresses Epidermal growth factor receptor (Homo sapiens, UniProt P00533). The assay can be described thus: Inhibition of EGFR (unknown origin) after 120 mins by HotSpot assay.
The target of assay [2] is Receptor tyrosine-protein kinase erbB-2 (Homo sapiens, UniProt P04626). Description: Inhibition of HER2 (unknown origin) after 120 mins by HotSpot assay.
A further assay has as its system BT-474. Description: Cytotoxicity against human BT474 cells expressing HER2 after 72 hrs by Cell Titer Glo assay. It counts as functional. The conditions noted are these: BT-474, 72 h. Background: Cellular ATP, detected with luciferase, serves as a proxy for viable cell number.
Assay [3] can be described thus: Cytotoxicity against human L-132 cells after 48 hrs by MTT assay. It counts as cell-based. The conditions noted are these: L132, 48 h. A general note: Formazan colour is commonly taken as a measure of viable cells.
Assay [4] addresses Cyclin-dependent kinase 2 (Homo sapiens, UniProt P24941). Description: Inhibition of CDK2 (unknown origin) after 120 mins by HotSpot assay.
In assay [5] the target is Hepatocyte growth factor receptor (Homo sapiens, UniProt P08581). The assay can be described thus: Inhibition of c-MET (unknown origin) after 120 mins by HotSpot assay.
For a further assay, the target named is Focal adhesion kinase 1 (Homo sapiens, UniProt Q05397). Description: Inhibition of FAK (unknown origin) after 120 mins by HotSpot assay.
Assay [6] concerns the target Fibroblast growth factor receptor 1 (Homo sapiens, UniProt P11362). The assay can be described thus: Inhibition of FGFR1 (unknown origin) after 120 mins by HotSpot assay.
Assay [7] concerns the target Insulin-like growth factor 1 receptor (Homo sapiens, UniProt P08069). Description: Inhibition of IGF1R (unknown origin) after 120 mins by HotSpot assay.
The target of assay [8] is Vascular endothelial growth factor receptor 2 (Homo sapiens, UniProt P35968). Description: Inhibition of VEGFR2 (unknown origin) after 120 mins by HotSpot assay.
Assay [9] addresses Tyrosine-protein kinase Lck (Homo sapiens, UniProt P06239). Description: Inhibition of LCK (unknown origin) after 120 mins by HotSpot assay.
In assay [10] the target is Mitogen-activated protein kinase 14 (Homo sapiens, UniProt Q16539). Description: Inhibition of P38a (unknown origin) after 120 mins by HotSpot assay.
Chain of Mitogen-activated protein kinase 14 (Q16539 whole entry): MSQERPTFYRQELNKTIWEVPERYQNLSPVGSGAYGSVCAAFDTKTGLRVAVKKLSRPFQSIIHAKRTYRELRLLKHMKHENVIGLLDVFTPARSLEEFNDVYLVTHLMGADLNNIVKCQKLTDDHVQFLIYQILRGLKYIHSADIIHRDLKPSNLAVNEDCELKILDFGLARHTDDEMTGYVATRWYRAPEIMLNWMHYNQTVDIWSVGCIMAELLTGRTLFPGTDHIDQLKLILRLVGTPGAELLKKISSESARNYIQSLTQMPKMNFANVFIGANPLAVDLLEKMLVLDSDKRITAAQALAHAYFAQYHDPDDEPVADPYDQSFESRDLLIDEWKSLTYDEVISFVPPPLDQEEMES
Assay [11] concerns the target MAP kinase-activated protein kinase 2 (Homo sapiens, UniProt P49137). Description: Inhibition of MAPKAPK2 (unknown origin) after 120 mins by HotSpot assay.

Chain of Receptor tyrosine-protein kinase erbB-2 (P04626 whole entry): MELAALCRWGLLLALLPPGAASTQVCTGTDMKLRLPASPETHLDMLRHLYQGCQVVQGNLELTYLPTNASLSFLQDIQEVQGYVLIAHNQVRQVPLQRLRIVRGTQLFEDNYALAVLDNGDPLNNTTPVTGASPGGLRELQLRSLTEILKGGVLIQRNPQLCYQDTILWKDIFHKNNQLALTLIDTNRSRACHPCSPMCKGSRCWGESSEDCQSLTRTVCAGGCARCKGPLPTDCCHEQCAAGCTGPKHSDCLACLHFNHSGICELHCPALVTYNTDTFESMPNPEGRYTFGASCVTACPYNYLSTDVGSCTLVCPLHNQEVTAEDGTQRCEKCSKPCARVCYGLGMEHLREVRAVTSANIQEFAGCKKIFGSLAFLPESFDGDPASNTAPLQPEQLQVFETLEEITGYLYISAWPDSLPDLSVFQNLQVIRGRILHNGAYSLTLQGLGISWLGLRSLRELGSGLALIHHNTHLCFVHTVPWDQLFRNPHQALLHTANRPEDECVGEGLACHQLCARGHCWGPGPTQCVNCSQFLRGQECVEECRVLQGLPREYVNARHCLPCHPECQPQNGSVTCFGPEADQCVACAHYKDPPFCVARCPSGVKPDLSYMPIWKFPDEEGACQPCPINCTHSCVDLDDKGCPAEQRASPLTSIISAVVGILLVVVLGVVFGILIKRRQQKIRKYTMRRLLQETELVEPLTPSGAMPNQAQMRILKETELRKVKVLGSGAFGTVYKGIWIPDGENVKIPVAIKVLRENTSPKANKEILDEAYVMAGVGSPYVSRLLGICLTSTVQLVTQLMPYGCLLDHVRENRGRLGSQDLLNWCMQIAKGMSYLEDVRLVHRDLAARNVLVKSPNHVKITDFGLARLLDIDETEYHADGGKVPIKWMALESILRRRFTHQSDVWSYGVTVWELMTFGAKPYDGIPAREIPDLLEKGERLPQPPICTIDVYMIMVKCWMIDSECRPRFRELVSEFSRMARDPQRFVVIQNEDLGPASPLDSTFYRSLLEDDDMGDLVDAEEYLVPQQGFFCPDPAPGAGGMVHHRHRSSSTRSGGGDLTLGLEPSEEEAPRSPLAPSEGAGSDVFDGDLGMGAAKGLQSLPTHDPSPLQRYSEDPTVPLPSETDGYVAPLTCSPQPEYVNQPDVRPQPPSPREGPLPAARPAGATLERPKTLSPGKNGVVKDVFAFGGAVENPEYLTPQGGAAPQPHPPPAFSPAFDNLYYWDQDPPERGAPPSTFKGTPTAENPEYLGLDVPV
Chain of Epidermal growth factor receptor (P00533 whole entry): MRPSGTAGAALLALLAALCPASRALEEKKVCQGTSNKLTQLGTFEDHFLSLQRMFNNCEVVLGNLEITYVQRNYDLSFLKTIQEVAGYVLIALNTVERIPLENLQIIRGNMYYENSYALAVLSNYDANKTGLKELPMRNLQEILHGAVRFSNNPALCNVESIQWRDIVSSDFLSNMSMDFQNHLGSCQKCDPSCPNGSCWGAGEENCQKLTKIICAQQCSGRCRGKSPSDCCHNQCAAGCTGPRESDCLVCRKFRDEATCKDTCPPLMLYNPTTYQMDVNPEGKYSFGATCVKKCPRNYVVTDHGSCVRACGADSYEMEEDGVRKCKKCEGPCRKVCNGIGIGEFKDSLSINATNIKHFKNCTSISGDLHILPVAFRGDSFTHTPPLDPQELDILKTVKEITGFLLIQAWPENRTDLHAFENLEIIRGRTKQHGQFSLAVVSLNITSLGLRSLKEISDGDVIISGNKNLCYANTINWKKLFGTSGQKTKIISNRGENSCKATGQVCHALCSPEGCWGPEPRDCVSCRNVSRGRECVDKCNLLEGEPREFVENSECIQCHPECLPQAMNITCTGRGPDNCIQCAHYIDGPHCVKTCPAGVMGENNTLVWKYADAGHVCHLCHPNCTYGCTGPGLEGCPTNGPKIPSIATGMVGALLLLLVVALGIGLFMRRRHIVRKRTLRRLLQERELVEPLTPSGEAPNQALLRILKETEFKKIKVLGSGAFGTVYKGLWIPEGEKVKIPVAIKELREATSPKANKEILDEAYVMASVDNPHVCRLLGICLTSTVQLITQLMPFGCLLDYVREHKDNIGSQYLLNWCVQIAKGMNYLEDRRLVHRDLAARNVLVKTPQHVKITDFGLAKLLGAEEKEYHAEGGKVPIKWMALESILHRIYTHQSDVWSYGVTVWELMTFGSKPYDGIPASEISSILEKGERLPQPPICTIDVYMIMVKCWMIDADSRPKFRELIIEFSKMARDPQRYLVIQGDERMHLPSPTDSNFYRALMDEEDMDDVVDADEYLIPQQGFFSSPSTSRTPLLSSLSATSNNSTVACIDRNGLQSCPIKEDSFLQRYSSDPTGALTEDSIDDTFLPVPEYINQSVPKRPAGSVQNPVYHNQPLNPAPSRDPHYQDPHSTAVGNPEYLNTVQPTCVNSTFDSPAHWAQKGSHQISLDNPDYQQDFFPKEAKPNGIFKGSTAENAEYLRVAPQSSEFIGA
Chain of MAP kinase-activated protein kinase 2 (P49137 whole entry): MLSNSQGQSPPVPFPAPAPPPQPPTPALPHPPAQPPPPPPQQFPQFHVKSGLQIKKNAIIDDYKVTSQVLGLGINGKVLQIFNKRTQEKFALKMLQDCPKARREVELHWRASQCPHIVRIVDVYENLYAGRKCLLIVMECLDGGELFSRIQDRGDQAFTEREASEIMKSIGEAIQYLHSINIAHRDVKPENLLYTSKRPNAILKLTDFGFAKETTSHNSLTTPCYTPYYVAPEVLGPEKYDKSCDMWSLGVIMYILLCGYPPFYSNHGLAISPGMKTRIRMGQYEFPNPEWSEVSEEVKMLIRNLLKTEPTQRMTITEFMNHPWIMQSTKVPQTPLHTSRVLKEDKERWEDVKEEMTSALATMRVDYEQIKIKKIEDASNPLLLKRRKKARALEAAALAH
Chain of Tyrosine-protein kinase Lck (P06239 whole entry): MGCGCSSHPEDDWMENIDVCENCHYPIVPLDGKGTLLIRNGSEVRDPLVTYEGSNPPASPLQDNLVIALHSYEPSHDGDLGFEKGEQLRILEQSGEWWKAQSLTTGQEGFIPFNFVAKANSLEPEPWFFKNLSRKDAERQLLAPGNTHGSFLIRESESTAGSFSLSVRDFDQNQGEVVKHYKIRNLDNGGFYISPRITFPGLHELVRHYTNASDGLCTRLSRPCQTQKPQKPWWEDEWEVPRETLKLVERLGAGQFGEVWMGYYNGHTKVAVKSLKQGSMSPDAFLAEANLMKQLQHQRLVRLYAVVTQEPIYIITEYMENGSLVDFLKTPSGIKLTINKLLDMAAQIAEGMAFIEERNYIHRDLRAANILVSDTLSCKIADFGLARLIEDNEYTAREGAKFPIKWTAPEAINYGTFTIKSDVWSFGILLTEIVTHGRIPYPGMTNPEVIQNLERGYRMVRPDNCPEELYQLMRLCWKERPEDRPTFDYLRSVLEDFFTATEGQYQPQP
Chain of Fibroblast growth factor receptor 1 (P11362 whole entry): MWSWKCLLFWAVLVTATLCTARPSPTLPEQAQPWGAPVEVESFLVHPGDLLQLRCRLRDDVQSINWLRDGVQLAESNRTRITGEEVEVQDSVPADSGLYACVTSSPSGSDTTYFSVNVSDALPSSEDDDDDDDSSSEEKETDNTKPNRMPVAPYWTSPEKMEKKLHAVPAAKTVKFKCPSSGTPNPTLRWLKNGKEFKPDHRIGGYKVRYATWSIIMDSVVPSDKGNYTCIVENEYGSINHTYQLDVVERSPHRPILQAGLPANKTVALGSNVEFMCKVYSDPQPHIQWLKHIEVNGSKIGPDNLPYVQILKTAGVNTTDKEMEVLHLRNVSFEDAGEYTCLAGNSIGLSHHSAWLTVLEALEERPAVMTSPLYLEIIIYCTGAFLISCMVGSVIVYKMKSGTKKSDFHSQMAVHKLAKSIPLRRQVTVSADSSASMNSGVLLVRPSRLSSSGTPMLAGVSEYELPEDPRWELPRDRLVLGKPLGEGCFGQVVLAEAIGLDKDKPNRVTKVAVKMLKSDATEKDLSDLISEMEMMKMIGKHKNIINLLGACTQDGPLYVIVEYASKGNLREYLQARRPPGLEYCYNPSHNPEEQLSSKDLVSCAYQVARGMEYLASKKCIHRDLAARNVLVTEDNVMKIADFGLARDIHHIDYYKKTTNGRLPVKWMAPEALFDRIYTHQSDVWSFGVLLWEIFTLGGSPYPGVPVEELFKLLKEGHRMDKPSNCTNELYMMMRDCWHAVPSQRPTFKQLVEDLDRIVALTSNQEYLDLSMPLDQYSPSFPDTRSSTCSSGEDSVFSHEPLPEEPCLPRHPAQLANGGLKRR

Turning to `CCOC(=O)C(=CNc1ccc2ncnc(Nc3ccc(Oc4ccc(Cl)c(Cl)c4)c(Cl)c3)c2c1)C(=O)OCC`, the half-inhibitory concentration (IC50) in assay [1] and in assay [2] was more than 10 µM each time.
On to `NC(=O)Nc1ccc2ncnc(Nc3ccc(Oc4ccc(Cl)c(Cl)c4)c(Cl)c3)c2c1`, for which the half-maximal inhibitory concentration (IC50) (usually the concentration that gives 50% inhibition) came to 0.543 µM in assay [1] and 0.706 µM in [2]. For the same molecule, the concentration for 50% growth inhibition (GI50) (in general, the concentration that inhibits growth by half) with BT-474 came to 2.38 µM.
As to `CCNC(=O)Nc1ccc2ncnc(Nc3ccc(OCc4cccc(F)c4)c(Cl)c3)c2c1`, the half-inhibitory concentration (IC50) in assay [1] was 0.035 µM; in assay [2], 0.126 µM; in assay [3], more than 100 µM. In the assay with BT-474, this molecule gave a GI50 of 1.82 µM.
In the case of `NC(=O)Nc1ccc2ncnc(Nc3ccc(OCc4cccc(F)c4)c(Cl)c3)c2c1`, the 50% inhibitory concentration (IC50) in [1] amounted to 0.099 µM; in assay [2], 0.287 µM. Moreover, growth in the assay with BT-474 was halved (GI50) at 4.72 µM.
Consider `CS(=O)(=O)CCNCc1ccc(-c2ccc3ncnc(Nc4ccc(OCc5cccc(F)c5)c(Cl)c4)c3c2)o1` [LAPATINIB], for which halving of growth in the assay with BT-474 (GI50) required 0.93 µM.
Consider `CCNC(=O)Nc1ccc(C(=O)Nc2ccc3ncnc(Nc4ccc(F)c(Cl)c4)c3c2)cc1`, for which the half-inhibitory concentration (IC50) in assay [1] is 0.031 µM; in assay [2], 0.855 µM.
As for `NC(=O)Nc1ccc(C(=O)Nc2ccc3ncnc(Nc4ccc(F)c(Cl)c4)c3c2)cc1`, the IC50 in assay [1] came out at 0.009 µM; in assay [2] it was 0.275 µM.
Consider `N#CC(C#N)=CNc1ccc2ncnc(Nc3ccc(OCc4cccc(F)c4)c(Cl)c3)c2c1`, for which the IC50 in assay [1] is 0.445 µM; in assay [2] it was 2.72 µM.
With `CCOC(=O)C(=CNc1ccc2ncnc(Nc3ccc(OCc4cccc(F)c4)c(Cl)c3)c2c1)C(=O)OCC`, the IC50 in assay [1] was determined as 0.812 µM; in [2], 5.05 µM.
As to `CC(=O)Nc1ccc2ncnc(Nc3ccc(OCc4ccccn4)c(Cl)c3)c2c1`, the IC50 in [1] was 0.003 µM; in [2], 0.016 µM; in [4], “Not Active”; in [5] it was “Not Active”; at Focal adhesion kinase 1, “Not Active”; in assay [6] it was “Not Active”. The IC50 result in assay [7] was “Not Active”; in assay [8], “Not Active”; in assay [9], 1.22 µM; in [10], “Not Active”; in [11], “Not Active”; in assay [3], more than 100 µM. The molecule also registered a GI50 in the assay with BT-474 of 2.7 µM.
`CCOC(=O)C(=CNc1ccc2ncnc(Nc3ccc(Oc4cccc(C(F)(F)F)c4)c(Cl)c3)c2c1)C(=O)OCC`: the IC50 is 0.023 µM in assay [1] and 1 µM in assay [2].
Take `CCNC(=O)Nc1ccc2ncnc(Nc3ccc(Oc4cccc(C(F)(F)F)c4)c(Cl)c3)c2c1`: the IC50 in assay [1] is 0.029 µM; in assay [2], 0.625 µM. For the same molecule, the 50% growth inhibitory concentration (GI50) with BT-474 is 3.55 µM.
With `CCOC(=O)C(=CNC(=O)Nc1ccc(C(=O)Nc2ccc3ncnc(Nc4ccc(F)c(Cl)c4)c3c2)cc1)C(=O)OCC`, the IC50 in [1] is 1.46 µM; in assay [2], more than 10 µM.
As to `CCOC(=O)C(=CNc1ccc2ncnc(Nc3ccc(OCc4ccccn4)c(Cl)c3)c2c1)C(=O)OCC`, the figures for the IC50 in [1] and in assay [2] were 1.02 µM and 3.29 µM, respectively.
Regarding `N#CC(C#N)=CNc1ccc2ncnc(Nc3ccc(OCc4ccccn4)c(Cl)c3)c2c1`, the figures for the half-maximal inhibitory concentration (IC50) in assay [1] and in assay [2] were 3.05 µM and 8 µM, respectively.
As to `N#CC(C#N)=CNc1ccc2ncnc(Nc3ccc(Oc4ccc(Cl)c(Cl)c4)c(Cl)c3)c2c1`, the IC50 in [1] and in assay [2] was more than 10 µM each time.
Consider `NC(=O)Nc1ccc2ncnc(Nc3ccc(Oc4cccc(C(F)(F)F)c4)c(Cl)c3)c2c1`, for which the 50% inhibitory concentration (IC50) is 0.004 µM in assay [1] and 0.077 µM in assay [2]. The same molecule had a 50% growth inhibitory concentration (GI50) in the assay on BT-474 of more than 10 µM.
With `CCNC(=O)Nc1ccc2ncnc(Nc3ccc(OCc4ccccn4)c(Cl)c3)c2c1`, the concentration for half-maximal inhibition (IC50) in [1] is 0.227 µM; in assay [2], 1.39 µM; in assay [3], more than 100 µM. In addition, in the assay on BT-474, the GI50 worked out at 1.95 µM.
For the molecule `CCNC(=O)Nc1ccc2ncnc(Nc3ccc(Oc4ccc(Cl)c(Cl)c4)c(Cl)c3)c2c1`, the half-inhibitory concentration (IC50) in assay [1] and in [2] was more than 10 µM each time. Besides, in the assay with BT-474, the GI50 is more than 10 µM.

The values above are taken from ChEMBL document CHEMBL3632549, “Targeting EGFR/HER2 tyrosine kinases with a new potent series of 6-substituted 4-anilinoquinazoline hybrids: Design, synthesis, kinase assay, cell-based assay, and molecular docking” (Bioorg Med Chem Lett, 2015).
